Measurements: patent US20230047027A1, “COMPOSITIONS AND METHODS USING CANNABINOID COMPOUNDS FOR REGULATING GASTRIC ACID SECRETION TO TREAT GASTROESOPHAGEAL REFLUX DISEASE AND RELATED CONDITIONS” (Demetrix, Inc., priority 2021, published 2023)
Like-named read-outs stand apart in the source and are kept apart here.

Legend:
H2 receptor [1] = biological target: T1, H2 receptor (Homo sapiens, UniProt P25021); assay: GPCR reactivity screen (PathHunter β-Arrestin GPCR assay), antagonist mode; format: cell-based; details: for H2 Receptor Antagonist Activity (percent inhibition): single assay run, pre-incubation with cannabinoid, then agonist challenge at EC80, test concentration not given, about 60% or higher = strong activity; for effect on sensitivity to histamine (in words): Table 1, negative inhibition; for H2 antagonist activity in the GPCR reactivity screen (in words): summary of Table 1
Procedure: To evaluate the H2 antagonist activity of the cannabinoid compounds, a GPCR reactivity assay was performed. The evaluated cannabinoid compounds were: CBN, THCV, CBDVA, CBG, CBL, CBC, CBDV, CBDA, CBD, CBGA, (+)-CBD, CBG-C4, CBD-C1, CBD-C2, CBGV, CBGA-C4, CBGVA, CBCA, and CBLA. Tiotidine was used as the control.
(§1) A single assay was run. In each run, PathHunter® cell lines were removed from a freezer stock and seeded at a volume of 20 μL into white walled, 384-well microplates and incubated at 37° C. Each cell was pre-incubated with the cannabinoid compound followed by an agonist challenge at the EC80 concentration. […] were then diluted to generate a 5x sample in assay buffer. 5 μL of the 5x sample was then added to cells and incubated at 37° C. for 30 minutes. Finally, 5 μL of 6x EC80 agonist in assay buffer were added to the cells and incubated at 37° C. for 90 minutes or 180 minutes. The assay signal was generated through addition of 12.5 μL or 15 μL (50% V/V) of a detection reagent cocktail followed by a one hour incubation time at room temperature. Microplates were read following signal generation with a PerkinElmer Envision™ (PerkinElmer Inc., Waltham, Mass.) for chemiluminescent signal detection. Reactivity was analyzed using the CBIS data analysis suite (ChemInnovation, CA) where RLU refers to the raw measured values. The percent inhibition was calculated using the formula: % Inhibition=100%*(1−mean RLU of test sample−mean RLU of control)/(mean RLU of EC80 control−mean RLU of vehicle control).
The percent inhibition is depicted. As used herein, strong activity against a receptor is considered a percent activity of about 60% or higher. Higher results for antagonism against the H2 receptor are considered better.

H2 receptor [2] = biological target: T1, H2 receptor; assay: IC50 antagonist activity screen (PathHunter β-Arrestin GPCR assay); format: cell-based; details: for Emax / Maximum inhibition (%): maximum inhibition (antagonism) from IC50 curves, about 60% or higher = strong activity; for Emax: read-out: IC50 (Inhibition - Max Response)
Source text: It has additionally been discovered that the alkyl side chain length of cannabinoid compounds can influence the effect the cannabinoid compounds have on the GPCR receptors. For example, it has been discovered that increasing the length of the alkyl side chain, generally increases the antagonism of CBG and CBD to the H2 receptor. […] The RC50 value indicates the value at which the cannabinoid reached the reference compound's 50% effective concentration.
as §1
Based on the results of the GPCR reactivity screen, and IC50 antagonist activity screen was run against the H2 receptor. The IC50 antagonist activity screen was run for each of CBG, CBC, CBL, CBN, CBDV, CBD, CBD-C1, CBD-C2, (+)-CBD, CBG-C6, CBG-C7, CBG-C9, CBD-C6, CBD-C7, CBD-C9, CBGA-C6, CBGA-C7, and CBGA-C9. IC50 curves were measured using the same GPCR assay, PathHunter® β-Arrestin from Eurofins DiscoverX Products (Fremont, Calif.), as the GPCR reactivity screen. As used herein, strong activity against a receptor is considered a maximum activity of about 60% or higher. Higher results for antagonism against the H2 receptor are considered better.

[3] = value at which the cannabinoid reached the reference compound's (tiotidine) 50% effective concentration, H2 receptor antagonist mode, read-out: RC50 (the source's name)

T1 sequence (P25021 whole entry): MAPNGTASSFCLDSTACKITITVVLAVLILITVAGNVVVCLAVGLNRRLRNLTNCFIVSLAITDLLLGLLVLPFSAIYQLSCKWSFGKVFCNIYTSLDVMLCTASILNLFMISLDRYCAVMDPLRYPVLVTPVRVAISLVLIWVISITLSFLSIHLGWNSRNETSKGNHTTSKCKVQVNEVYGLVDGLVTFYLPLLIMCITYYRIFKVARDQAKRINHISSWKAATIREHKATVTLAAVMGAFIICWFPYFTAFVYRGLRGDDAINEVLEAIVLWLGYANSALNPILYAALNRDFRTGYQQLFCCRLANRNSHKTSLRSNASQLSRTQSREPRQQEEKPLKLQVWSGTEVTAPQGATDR

| Compound | H2 Receptor Antagonist Activity (percent inhibition) (H2 receptor [1]) | H2 antagonist activity in the GPCR reactivity screen (in words) (H2 receptor [1]) | Maximum inhibition (%) (H2 receptor [2]) | IC50 (H2 receptor [2]; [3]) | also measured |
| --- | --- | --- | --- | --- | --- |
| CCCCCc1cc(O)c2c(c1)OC(C)(CCC=C(C)C)C=C2 (stereo not shown) [CBC, cannabichromene] | 117% | – | – | – | IC50 (H2 receptor [2]): 2.63 µM; Emax (H2 receptor [2]): 62% |
| CCCCc1cc(O)c(CC=C(C)CCC=C(C)C)c(O)c1 [CBG-C4, cannabigerol butyl] | −62% | did not demonstrate H2 antagonist activity | – | – | effect on sensitivity to histamine (in words) (H2 receptor [1]): increasing sensitivity to histamine |
| CCCCCCc1cc(O)c(C/C=C(\C)CCC=C(C)C)c(O)c1C(=O)O [CBGA-C6, cannabigerolic acid hexyl] | – | – | 9 | > 10 µM | – |
| CCCc1cc(O)c(C/C=C(\C)CCC=C(C)C)c(O)c1 [CBGV, cannabigerivarin] | 10% | did not demonstrate H2 antagonist activity | – | – | – |
| CCCCCc1cc(O)c(C/C=C(\C)CCC=C(C)C)c(O)c1 [CBG, cannabigerol] | – | – | – | > 10 µM | Emax (H2 receptor [2]): 21% |
| CCCCCCCCCc1cc(O)c(C/C=C(\C)CCC=C(C)C)c(O)c1 [CBG-C9, cannabigerol nonyl] | – | – | 96 | 2.89 µM | – |
| C=C(C)[C@@H]1CCC(C)=C[C@H]1c1c(O)cc(CC)cc1O [CBD-C2, cannabidol-C2] | – | – | 71 | 5.22 µM | – |
| CCCCCc1cc2c(c(O)c1C(=O)O)C1C3C(CCC3(C)O2)C1(C)C (stereo not shown) [CBLA, cannabicyclolic acid] | 11% | did not demonstrate H2 antagonist activity | – | – | – |
| C=C(C)[C@@H]1CCC(C)=C[C@H]1c1c(O)cc(CCCCCC)cc1O [CBD-C6, cannabidol hexyl] | – | – | 80 | 0.46 µM | – |
| CCCc1cc(O)c2c(c1)OC(C)(C)[C@@H]1CCC(C)=C[C@@H]21 [THCV, tetrahydrocannabivarin] | −22% | did not demonstrate H2 antagonist activity | – | – | effect on sensitivity to histamine (in words) (H2 receptor [1]): increasing sensitivity to histamine |
| C=C(C)[C@@H]1CCC(C)=C[C@H]1c1c(O)cc(CCCCCCCCC)cc1O [CBD-C9, cannabidol nonyl] | – | – | 56 | 0.1 µM | – |
| CCCCCc1cc2c(c(O)c1C(=O)O)C=CC(C)(CCC=C(C)C)O2 (stereo not shown) [CBCA, cannabichromenic acid] | 12% | did not demonstrate H2 antagonist activity | – | – | – |
| C=C(C)[C@@H]1CCC(C)=C[C@H]1c1c(O)cc(CCCCC)c(C(=O)O)c1O [CBDA, cannabidiolic acid] | 4% | did not demonstrate H2 antagonist activity | – | – | – |
| CCCCCc1cc(O)c2c(c1)OC1(C)CCC3C1C2C3(C)C (stereo not shown) [CBL, cannabicyclol] | – | – | – | – | IC50 (H2 receptor [2]): 1.17 µM; Emax (H2 receptor [2]): 64% |
| CCCCCCCCCc1cc(O)c(C/C=C(\C)CCC=C(C)C)c(O)c1C(=O)O [CBGA-C9, cannabigerolic acid nonyl] | – | – | 11 | > 10 µM | – |
| C=C(C)[C@@H]1CCC(C)=C[C@H]1c1c(O)cc(CCC)cc1O [CBDV, cannabidivarin] | – | – | – | 4.5 µM | Emax (H2 receptor [2]): 75% |
| CCCCCc1cc(O)c2c(c1)OC(C)(C)c1ccc(C)cc1-2 [CBN, cannabinol] | – | – | – | – | IC50 (H2 receptor [2]): > 10 µM; Emax (H2 receptor [2]): 12% |
| C=C(C)[C@@H]1CCC(C)=C[C@H]1c1c(O)cc(C)cc1O [CBD-C1, cannabidiorcol] | 47% | did not demonstrate H2 antagonist activity | 53 | > 10 µM | – |
| C=C(C)[C@@H]1CCC(C)=C[C@H]1c1c(O)cc(CCC)c(C(=O)O)c1O [CBDVA, cannabidivarinic acid] | 12% | did not demonstrate H2 antagonist activity | – | – | – |
| CCCCc1cc(O)c(C/C=C(\C)CCC=C(C)C)c(O)c1C(=O)O [CBGA-C4, cannabigerolic acid butyl] | 16% | did not demonstrate H2 antagonist activity | – | – | – |
| CCCCCCc1cc(O)c(C/C=C(\C)CCC=C(C)C)c(O)c1 [CBG-C6, cannabigerol hexyl] | – | – | 84 | > 10 µM | – |
| CCCc1cc(O)c(C/C=C(\C)CCC=C(C)C)c(O)c1C(=O)O [CBGVA, cannabigerovarinic acid] | 2% | did not demonstrate H2 antagonist activity | – | – | – |
| CCCCCCCc1cc(O)c(C/C=C(\C)CCC=C(C)C)c(O)c1C(=O)O [CBGA-C7, cannabigerolic acid heptyl] | – | – | 17 | > 10 µM | – |
| C=C(C)[C@@H]1CCC(C)=C[C@H]1c1c(O)cc(CCCCCCC)cc1O [CBD-C7, cannabidol heptyl] | – | – | 74 | 0.38 µM | – |
| CCCCCCCc1cc(O)c(C/C=C(\C)CCC=C(C)C)c(O)c1 [CBG-C7, cannabigerol heptyl] | – | – | 93 | 3.39 µM | – |
| C=C(C)[C@@H]1CCC(C)=C[C@H]1c1c(O)cc(CCCCC)cc1O [CBD, cannabidol] | – | – | 64 | 0.83 µM | – |
| (+)-cannabidiol [(+)-CBD] | 45% | did not demonstrate H2 antagonist activity | 42 | > 10 µM | – |
| CCCCCc1cc(O)c(C/C=C(\C)CCC=C(C)C)c(O)c1C(=O)O [CBGA, cannabigerolic acid] | −3% | did not demonstrate H2 antagonist activity | – | – | effect on sensitivity to histamine (in words) (H2 receptor [1]): increasing sensitivity to histamine |
